From paper PMC3495945, “Org 214007-0: A Novel Non-Steroidal Selective Glucocorticoid Receptor Modulator with Full Anti-Inflammatory Properties and Improved Therapeutic Index” (PLoS ONE, 2012)
pEC50, pIC50: −log10 of the molar value. Where two headings read alike, the source gives them in different places.

What was measured:
[1] = test system: primary human whole blood cells; experiment: Human whole blood PMA/anti-CD28-induced cytokine release; format: cell-based; details: for pIC50: read-out: IC50, PMA/anti-CD28-induced IL-5 release
Excerpt: Hereafter, supernatant was carefully collected and tested at the most optimal dilution (predetermined by a titration study on control samples) in a human TNFα-specific ELISA (for the LPS stimulated samples) or in a human IL-5-specific or human G-CSF-specific ELISA (for the PMA/anti-CD28 stimulated samples) (Duoset, R&D systems USA).

[2] = target: T1, His-GR-LBD (F602S mutated) (Homo sapiens, UniProt P04150, F602S); experiment: Co-factor-peptide (TIF2-3) recruitment assay; format: biochemical; details: for Emax: read-out: percentage maximal efficacy (%CV), recruitment of TIF2-3 peptide
T1 construct: E. coli produced His-GR-LBD (F602S mutated) at 10 nM; made in house; host or cells: E. coli
T1 sequence (P04150 524-758 F602S limits assumed): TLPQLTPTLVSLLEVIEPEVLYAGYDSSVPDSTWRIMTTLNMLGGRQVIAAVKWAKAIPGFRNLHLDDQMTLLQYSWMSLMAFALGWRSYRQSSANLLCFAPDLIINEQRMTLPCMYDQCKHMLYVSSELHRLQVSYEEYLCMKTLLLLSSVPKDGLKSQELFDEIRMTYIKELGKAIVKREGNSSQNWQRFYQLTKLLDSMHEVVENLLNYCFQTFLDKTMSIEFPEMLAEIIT
Description: Hereafter, peptide, representing Transcriptional Intermediary Factor 2 – LXXLL motif 3 (TIF2-3) at 100 nM (final concentration), streptavidin-APC (8 nM, final concentration) and anti-His-Eu (1.25 nM final concentration) were added to a total volume of 50 μL/well and incubation at 4°C was continued for another 20 hours. Fluorescence was measured using Tecan Infinite M1000 and data were analysed by GraphPad Prism.

[3] = test system: murine collagen-induced arthritis (CIA) model; details: for disease score (arthritis score): oral, once daily 3 weeks, therapeutic
Description: At day 0 mice were immunized at the base of the tail with 100 μg bovine type II collagen (UMC Nijmegen, The Netherlands) in Complete Freund's Adjuvant (CFA, Difco) enriched with 2 mg/ml Mycobacterium tuberculosis H37RA (Difco). At day 21 mice were boosted by an i.p. injection of 100 μg bovine type II collagen dissolved in saline. After disease onset, mice with an arthritis score ranging from 0.25 to 1.25 were divided into matched groups (n = 12). […] The clinical severity of arthritis (arthritis score) was graded and scored as described [51]. To assess the effects of treatments, the area under the curve (AUC) of arthritis score (subtracting baseline AUC of arthritis score on day 0) was used. One day after the final treatment animals were sacrificed and the knee and ankle joints were imaged using a Faxitron X-ray, Modl MX-20 digital imaging system and analysed using Specimen (Version 2.0.1). The bone destruction was scored on a scale of 0–5 as described previously [51]. The cumulative scores of 2 joints (right ankle and knee) were used as radiological scores. From H&H-stained sections, articular cartilage destruction and inflammatory infiltrate in the right knee joint were scored on a scale of 0–3. The whole study was carried out in a blinded fashion. Statistical analysis was performed using one-way ANOVA.

[4] = test system: THP-1 cells; experiment: THP-1 induction of FKBP51, GILZ, DUSP1; format: cell-based, human; details: for pEC50: Homo sapiens, THP-1, no stimulus; for Max. eff., DUSP1 induction / Max. eff., FKBP51 induction / Max. eff., GILZ induction: THP-1, prednisolone = 100%
Description: THP-1 cells were incubated with glucocorticoid in the presence of either DMSO (control) or IFNγ/TNFα (220 ng/ml/375 ng/ml). After 6 hours total RNA was isolated and further processed for microarray hybridization as described for the HepG2 cells. The data from all microarray experiments have been deposited in the NCBI Gene Expression Omnibus (GEO) under accession number (identifier will be included in proof). […] Expression of FKBP51, MCP-1, IL-6 and IL-8 protein was measured by specific […]; #A[…] [MCP-1], #A[…] [IL-6] and #A[…] [IL-8]) according to the manufacturer manual. […] Expression of FKBP51, DUSP1 and GILZ was measured by Q-PCR according to the same procedure as described for the HepG2 cells. In this case the following primer-pairs were used: for GAPDH: [NT] and [NT]; for FKBP51: [NT] and [NT]; for DUSP1: [NT] and [NT]; for GILZ: [NT] and [NT]. For the evaluation of protein expression, cells were incubated overnight with a whole dose range of compounds. Supernatants were collected to determine cytokine levels and cell lysates were generated by repeated freeze-thaw cycles to measure expression of FKBP51 protein. Expression of FKBP51, MCP-1, IL-6 and IL-8 was measured by specific […]; #A[…] [MCP-1], #A[…] [IL-6] and #A[…] [IL-8]) according to the manufacturer manual. […] Samples were incubated for 60 min at 23 C. […] Plates were measured using an EnVision-Alpha Reader.

[5] = test system: HepG2 cells; experiment: Gene expression profiling (microarray) in HepG2 cells; format: cell-based, human; details: HepG2, 1 μM compound, 6 hours; prednisolone set at 100%
Description: HepG2-8/97-WS.5 cells, deprived from serum for 18 hours, were stimulated with glucocorticoid and 0.5 mM cAMP for 6 hours. RNA was isolated and used for double stranded cDNA synthesis using the One-Cycle Target Labeling Kit (Affymetrix Santa Clara, CA). This cDNA was used as a template for the preparation of biotin-labeled cRNA using the GeneChip IVT Labeling Kit (Affymetrix Santa Clara, CA). Biotin-labeled cRNA was fragmented and hybridized at 45°C for 16–17 hours to the Human Genome U133A 2.0 Array or the Human Genome U133 Plus 2.0 Array (Affymetrix, Santa Clara, CA). (for more detailed information see Supportive Information) (SI text). Arrays were stained with phycoerythrin-streptavidin conjugate (Molecular Probes, Eugene, OR), and the signals were amplified by staining the array with biotin-labeled anti-streptavidin antibody (Vector Laboratories, Burlingame, CA) followed by phycoerythrin-streptavidin. […] Data was saved as raw image file and quantified using GCOS (Affymetrix). […]
HepG2-8/97-WS.5 cells were seeded at 2.10^5 cells/mL in a 24-well plate in DMEM/F12 medium (Gibco), supplemented with 80 U/mL penicillin, 80 μg/mL streptomycin and 5% Fetal Bovine Serum (Invitrogen). […] RNA quantity and quality were determined using the Agilent […] bioanalyzer. […] Data was saved as raw image file and quantified using GCOS (Affymetrix).

[6] = human whole blood, P/28, prednisolone = 100%
[7] = read-out: EC50, DUSP1 induction
[8] = read-out: EC50, FKBP51 induction

Compound	pIC50 ([1]; Homo sapiens, Whole blood cell, 24 h)	Max. eff., IL-5 repression [1, 6]	Emax [2] [%]	disease score (arthritis score) [3]	pEC50 [4, 7]	pEC50 [4, 8]	pEC50 ([4]; read-out: EC50, GILZ induction)	Max. eff., DUSP1 induction [4]	Max. eff., FKBP51 induction [4]	Max. eff., GILZ induction [4]	Max eff., induction of gene expression, micro-array [5] [%]	pEC50 ([1]; Whole blood cell, human whole blood, 24 hours, read-out: EC50, enhancement of PMA/anti-CD28-induced G-CSF release)	pIC50 ([1]; Whole blood cell, human whole blood, 24 hours)	Max. eff., G-CSF induction [1, 6]	pEC50 ([2]; 0.1 μM peptide, read-out: EC50 (%CV), recruitment of TIF2-3 peptide)	disease symptoms ([3]; 1.5 mg/kg/day oral)	bone damage by X-ray on knees and paws ([3]; 0.5 and 1.5 mg/kg/day, end of study)	potency relative to prednisolone ([3]; CIA, oral once daily)	histopathology of knee joints: inflammatory infiltrates, cartilage destruction, bone apposition ([3]; two highest doses (0.5 and 1.5 mg/kg/day))
C[C@]12C=CC(=O)C=C1CC[C@@H]1[C@@H]2[C@@H](O)C[C@@]2(C)[C@H]1CC[C@]2(O)C(=O)CO [prednisolone, reference compound]	8.17	100%	100	dose-dependent reduction	7.17	7.18	7.22	100%	100%	100%	100	–	–	–	–	–	–	–	–
Cc1nnsc1C(=O)N[C@H]1CCN2c3ccc(C#N)cc3[C@@H](C)c3ccccc3[C@@H]2C1 [Org 214007-0]	–	64 (±11) %	67	dose-dependent reduction	8.19	8.10	7.86	41 (±6) %	42 (±8) %	13 (±5) %	67	6.73	7.84	39 (±7.8) %	8.00	total suppression	significant reduction	about 3 fold	significant reduction
